Our source for the TGI and GI50 values is PubChem BioAssay (NCI).

Each structure is given as a SMILES string.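 How tested: cells in 96-well plates exposed to compound for 48 hours at five concentrations. GI50: concentration for 50% inhibition of growth. At the TGI there is no net growth.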

Common to all, as to experiment: inhibition of tumour cell growth, NCI panel, 48 h
The subject of assay [1] is SK-MEL-5 melanoma.
The test system of assay [2] is SK-MEL-28 melanoma.
For assay [3], the system named is 786-0 renal.
The test system of assay [4] is EKVX NSCLC.
Assay [5] has as its system MOLT-4 leukemia.
The subject of assay [6] is RXF 393 renal.
Assay [7] deals with NCI-H460 lung.
In assay [8] the test system is RPMI-8226 leukemia.
Assay [9] concerns HCT-15 colon.
Assay [10] has as its system SK-OV-3 ovarian.

On to `CN(C)c1ccc(/C=C2\C[N+](C)(C)C/C(=C\c3ccc(N(C)C)cc3)C2=O)cc1`, for which the TGI in [1] was 23.6 µM; in assay [2], 37.4 µM; in assay [3], 85.3 µM; in assay [4] it was greater than 100 µM; in assay [5], 59.3 µM; in [6] it was greater than 77.7 µM. Also, the TGI was greater than 59 µM in assay [7], 28.5 µM in assay [8], greater than 100 µM in assay [9] and 73.1 µM in assay [10].
For the molecule `O=C1CC[C@H]2CNC(=O)C[C@H]2C1`, the TGI in assay [1], in assay [2], in assay [3], in [4], in [5] and in assay [6] was greater than 100 µM each time. The TGI in assay [7], in assay [8], in assay [9] and in [10] was greater than 100 µM throughout.
With `COc1cc2c(NCCCCCCO[N+](=O)[O-])ncnc2c(OC)c1OC`, the TGI is 25 µM in assay [1]; greater than 83 µM in assay [2]; 69.2 µM in assay [3]; 68.3 µM in assay [4]; greater than 61.9 µM in [5]; 75.2 µM in [6]. Also, the TGI in assay [7] was 69.8 µM; in [8], 32.2 µM; in assay [9], 72.7 µM; in assay [10] it was greater than 100 µM.
Consider `N#Cc1cnn2ccn(C3OC(COC(=O)c4ccccc4)C(OC(=O)c4ccccc4)C3OC(=O)c3ccccc3)c12` (stereo not given), for which the TGI in [1], in assay [2], in assay [3], in assay [4], in assay [5] and in assay [6] was greater than 21.5 µM in each case. Besides, the TGI in assay [7], in [8], in assay [9] and in assay [10] was greater than 21.5 µM throughout.
As to `OC(c1cccc(C(F)(F)F)c1)c1cnccc1NC1CCCCCC1` (stereo not given), the GI50 in assay [1] was 1610 nM; in [2] it was 1730 nM; in [3] it was 1620 nM; in [4] it was 1980 nM; in assay [5], 2300 nM; in [6], 1440 nM. The GI50 in [7] was 1840 nM; in assay [8], 1670 nM; in assay [9] it was 1810 nM; in assay [10] it was 7 µM. The TGI was found to be 3.04 µM in [1]; 3.24 µM in assay [2]; 3.08 µM in assay [3]; 4.68 µM in [4]; 6.19 µM in [5]; 2.89 µM in assay [6]. Also, the TGI turned out to be 3.57 µM in assay [7], 4.11 µM in assay [8], 3.54 µM in assay [9] and 20 µM in assay [10].
Regarding `N#Cc1c(O)c2c(c(O)c1C#N)C(=O)c1ccccc1C2=O`, the GI50 in [1] is 282 nM; in assay [2], 1060 nM; in assay [3], 2450 nM; in assay [4] it was 3070 nM; in [5], 2070 nM; in assay [6], 1860 nM. The GI50 in [7] is 1040 nM; in assay [8], 1420 nM; in assay [9] it was 2320 nM; in assay [10], 3.99 µM. The TGI was found to be 1.14 µM in assay [1]; 3.58 µM in assay [2]; 5.45 µM in [3]; 26.1 µM in assay [4]; 5.07 µM in assay [5]; 6.27 µM in [6]. Moreover, the TGI in assay [7] is greater than 33.8 µM; in assay [8], 4.67 µM; in [9] it was greater than 28.1 µM; in [10] it was greater than 34.9 µM.
As for `CCOC(=O)CCCO`, the TGI in [1], in assay [2], in assay [3], in assay [4], in assay [5] and in assay [6] was greater than 100 µM each time. Moreover, the TGI in [7], in assay [8], in assay [9] and in assay [10] was greater than 100 µM in each case.
Turning to `O=C(O)/C=C/C(=O)Nc1ncn[nH]1`, the TGI in assay [1], in assay [2], in assay [3], in assay [4], in assay [5] and in assay [6] was greater than 100 µM throughout. Moreover, the TGI in [7], in [8], in assay [9] and in assay [10] was greater than 100 µM in each case.
Take `COc1ccc(N=Cc2cc(OC)c(OC)c(OC)c2)cc1`: the TGI in [1], in assay [2], in assay [3], in assay [4], in assay [5] and in assay [6] was greater than 100 µM each time. Also, the TGI in [7] is greater than 100 µM; in assay [8], 59.6 µM; in assay [9] it was greater than 100 µM; in assay [10] it was greater than 100 µM.
For `CC(=O)/C=C/c1cccc(N=S)c1`, the TGI was 63.4 µM in [1]; 44.6 µM in assay [2]; 13.1 µM in [3]; greater than 63 µM in assay [4]; greater than 75.2 µM in [5]; 53.8 µM in [6]. The TGI in assay [7] was greater than 53.8 µM; in assay [8], greater than 27.8 µM; in assay [9], 31.9 µM; in [10], greater than 81.9 µM.
In the case of `O=C1/C(=C/c2ccccc2)CN(C(=O)Oc2ccc(Cl)cc2)C/C1=C\c1ccccc1`, the TGI in assay [1] amounted to 4.14 µM; in [2], 4.26 µM; in assay [3] it was 3.96 µM; in [4], 26.7 µM; in [5] it was 8.63 µM; in assay [6], 4.14 µM. Also, the TGI in [7] is 9.84 µM; in [8], 0.902 µM; in [9], 2.73 µM; in assay [10], 20.5 µM.
